pKi: −log10 of the molar value.
Columns and labels:
GSK-3β(AA 1-420) = target: T1, GSK-3β(AA 1-420) (Homo sapiens, UniProt P49841); assay: GSK-3 Inhibition Assay (standard coupled enzyme system); format: biochemical; conditions: 20 μM ATP, 30° C.
T1 construct: GSK-3β(AA 1-420)
Description: Compounds of the present invention were screened for their ability to inhibit GSK-3β(AA 1-420) activity using a standard coupled enzyme system (Fox et al., Protein Sci. 1998, 7, 2249). Reactions were carried out in a solution containing 100 mM HEPES (pH 7.5), 10 mM MgCl2, 25 mM NaCl, 300 μM NADH, 1 mM DTT and 1.5% DMSO. Final substrate concentrations in the assay were 20 μM ATP (Sigma Chemicals, St Louis, Mo.) and 300 μM peptide (American Peptide, Sunnyvale, Calif.). Reactions were carried out at 30° C. and 20 nM GSK-3β. Final concentrations of the components of the coupled enzyme system were 2.5 mM phosphoenolpyruvate, 300 μM NADH, 30 μg/ml pyruvate kinase and 10 μg/ml lactate dehydrogenase.
An assay stock buffer solution was prepared containing all of the reagents listed above with the exception of ATP and the test compound of the present invention. The assay stock buffer solution (175 μl) was incubated in a 96 well plate with 5 μl of the test compound of the present invention at final concentrations spanning 0.002 μM to 30 μM at 30° C. for 10 min. Typically, a 12-point titration was conducted by preparing serial dilutions (from 10 mM compound stocks) with DMSO of the test compounds of the present invention in daughter plates. The reaction was initiated by the addition of 20 μl of ATP (final concentration 20 μM). Rates of reaction were obtained using a Molecular Devices Spectramax plate reader (Sunnyvale, Calif.) over 10 min at 30° C. The Ki values were determined from the rate data as a function of inhibitor concentration.

[1] = test system: rat brains after transient middle cerebral artery occlusion (MCAO); conditions: cited from earlier work
[2] = range printed with mixed units (500 nM to 1 uM)

T1 sequence (P49841 whole entry, species assumed, the tested form may be a part): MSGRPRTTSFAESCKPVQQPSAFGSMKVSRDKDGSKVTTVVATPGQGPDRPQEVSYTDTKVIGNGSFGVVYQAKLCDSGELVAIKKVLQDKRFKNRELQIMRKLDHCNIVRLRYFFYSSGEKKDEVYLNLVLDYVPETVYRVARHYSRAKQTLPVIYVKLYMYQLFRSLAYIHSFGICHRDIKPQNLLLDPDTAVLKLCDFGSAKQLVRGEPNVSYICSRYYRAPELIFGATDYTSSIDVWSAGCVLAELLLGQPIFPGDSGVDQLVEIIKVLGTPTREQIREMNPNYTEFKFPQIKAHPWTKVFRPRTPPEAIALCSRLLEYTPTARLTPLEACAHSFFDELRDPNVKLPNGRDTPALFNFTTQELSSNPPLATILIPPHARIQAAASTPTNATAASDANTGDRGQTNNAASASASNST

pKi (GSK-3β(AA 1-420); 300 μM peptide, 20 nM GSK-3β) | Compound | other results
6.30 to 7.30 | Cc1cc(Nc2cc(N3CCC3)nc(-c3ccccc3Cl)n2)n[nH]1 [Compound I-1, 6-(Azetidin-1-yl)-2-(2-chlorophenyl)-N-(5-methyl-1H-pyrazol-3-yl)pyrimidin-4-amine] | 
> 7.30 | Cc1cnc(Nc2cc(N3CCC3)nc(-c3ccccc3Cl)n2)s1 [Compound I-2] | 
> 7.30 | Fc1cnc2[nH]nc(Nc3cc(N4CCC4)nc(-c4ccccc4Cl)n3)c2c1 [Compound I-3] | 
6.30 to 7.30 | Cc1cc(Nc2cc(N3CC(F)(F)C3)nc(-c3ccccc3Cl)n2)n[nH]1 [Compound I-4] | 
6.30 to 7.30 | Cc1cc(Nc2cc(N3CC(F)(C4CC4)C3)nc(-c3ccccc3Cl)n2)n[nH]1 [Compound I-5] | 
 | Cc1cc(Nc2cc(N3CC(O)(C4CC4)C3)nc(-c3ccccc3Cl)n2)n[nH]1 [Compound I-6] | pKi (GSK-3β(AA 1-420); [2]): 6.00 to 6.30
 | Cc1cc(Nc2cc(N3CC(C)(O)C3)nc(-c3ccccc3Cl)n2)n[nH]1 [Compound I-7] | pKi (GSK-3β(AA 1-420); [2]): 6.00 to 6.30
5.30 to 6.00 | Cc1cc(Nc2cc(N3CC(O)(C(C)(C)C)C3)nc(-c3ccccc3Cl)n2)n[nH]1 [Compound I-8] | 
> 7.30 | Fc1cnc2[nH]nc(Nc3cc(N4CC(F)(C5CC5)C4)nc(-c4ccccc4Cl)n3)c2c1 [Compound I-9] | 
6.30 to 7.30 | OC1(C2CC2)CN(c2cc(Nc3n[nH]c4ccc(F)cc34)nc(-c3ccccc3Cl)n2)C1 [Compound I-10] | 
> 7.30 | OC1(C2CC2)CN(c2cc(Nc3n[nH]c4ncc(F)cc34)nc(-c3ccccc3Cl)n2)C1 [Compound I-11] | 
6.30 to 7.30 | Cc1cc(Nc2cc(C3CNC3)nc(-c3ccccc3Cl)n2)n[nH]1 [Compound I-12, 6-(Azetidin-3-yl)-2-(2-chlorophenyl)-N-(5-methyl-1H-pyrazol-3-yl)pyrimidin-4-amine] | 
 | IGF-1: IGF-1 (insulin growth factor-1), a known GSK-3 inhibitor | infarct size [1]: reduced infarct size
